The assay concerns the target T1, Human Polθ polymerase domain (aa1820-2590) (Homo sapiens, UniProt O75417).
T1 construct: Human Polθ polymerase domain (aa1820-2590) was expressed in E. Coli; made in house; host or cells: E. coli
T1 sequence (O75417 1820-2590): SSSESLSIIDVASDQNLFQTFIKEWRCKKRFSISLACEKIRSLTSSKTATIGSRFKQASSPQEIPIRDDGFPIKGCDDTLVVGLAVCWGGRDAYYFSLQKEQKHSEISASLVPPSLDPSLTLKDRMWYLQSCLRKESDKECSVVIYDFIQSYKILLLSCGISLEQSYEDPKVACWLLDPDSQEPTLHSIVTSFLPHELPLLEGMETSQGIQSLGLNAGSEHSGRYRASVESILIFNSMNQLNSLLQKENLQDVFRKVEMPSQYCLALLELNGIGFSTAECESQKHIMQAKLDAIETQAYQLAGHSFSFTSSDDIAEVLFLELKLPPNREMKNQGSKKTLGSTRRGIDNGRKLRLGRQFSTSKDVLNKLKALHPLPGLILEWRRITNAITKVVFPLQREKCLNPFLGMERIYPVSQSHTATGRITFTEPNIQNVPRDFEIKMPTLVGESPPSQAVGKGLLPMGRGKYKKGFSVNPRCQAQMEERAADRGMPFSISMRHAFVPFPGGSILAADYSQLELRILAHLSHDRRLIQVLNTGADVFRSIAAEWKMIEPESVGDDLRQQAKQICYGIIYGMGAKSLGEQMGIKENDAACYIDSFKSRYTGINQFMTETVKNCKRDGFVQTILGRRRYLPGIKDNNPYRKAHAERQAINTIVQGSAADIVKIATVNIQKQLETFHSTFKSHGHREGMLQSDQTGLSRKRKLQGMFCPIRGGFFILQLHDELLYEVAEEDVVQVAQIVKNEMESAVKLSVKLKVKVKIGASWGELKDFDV
Nature of the assay: Polθ Polymerase Domain WT KI Assay (PicoGreen). In kind it is biochemical. As to conditions: 100 nM DNA substrate, 0.156 nM Polθ, initial rates vs inhibitor concentration. Put shortly: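 E. coli-expressed human Polθ polymerase domain (aa1820-2590) on annealed DNA II Short/Long primer-template (1.2:1), in 25 mM Tris pH 7.5, NaCl, 5% glycerol, 0.01% Triton X-100, 0.1 mg/ml BSA, 1 mM DTT, 1% DMSO. EDTA-quenched timepoints to 180 min, PicoGreen fluorescence. Initial rates vs inhibitor concentration fitted four-parameter for KI.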

Structures can show the parent of a compound that is named as a salt.

Take `Cc1cc(C(F)(F)F)cc(N2C(=O)C[C@@H]3CN(CC4CCN(CCO)CC4)c4c(C)cccc4N(C)C(=O)[C@H]32)n1` [Example 88, (3aR,11aS)-5-((1-(2-Hydroxyethyl)piperidin-4-yl)methyl)-6,10-dimethyl-1-(6-methyl-4-(trifluoromethyl)pyridin-2-yl)-1,3a,4,5,10,11a-hexahydro-2H-benzo[b]pyrrolo[2,3-f][1,4]diazocine-2,11(3H)-dione]: the Ki (in general, a dissociation constant, usually derived from enzyme kinetics or from competition with a known ligand) came out at 1.3 nM.

Take `Cc1cc(C(F)(F)F)cc(N2C(=O)C[C@@H]3CN(CCN4CCC(O)CC4)c4c(Cl)cccc4N(C)C(=O)[C@H]32)n1` [Example 34, (3aR,11aS)-6-Chloro-5-(2-(4-hydroxypiperidin-1-yl)ethyl)-10-methyl-1-(6-methyl-4-(trifluoromethyl)pyridin-2-yl)-1,3a,4,5,10,11a-hexahydro-2H-benzo[b]pyrrolo[2,3-f][1,4]diazocine-2,11(3H)-dione]: affinity was put at a Ki of 3.82 nM.

Take `Cc1cc(C(F)(F)F)cc(N2C(=O)C[C@@H]3CN(Cc4cn5c(n4)[C@H](C)N(C)CC5)c4c(C)cccc4N(C)C(=O)[C@H]32)n1` (racemic) [Example 116b, (3aR,11aS)-5-(((S/R)-7,8-Dimethyl-5,6,7,8-tetrahydroimidazo[1,2-a]pyrazin-2-yl)methyl)-6,10-dimethyl-1-(6-methyl-4-(trifluoromethyl)pyridin-2-yl)-1,3a,4,5,10,11a-hexahydro-2H-benzo[b]pyrrolo[2,3-f][1,4]diazocine-2,11(3H)-dione]: the inhibition constant (Ki) came to 0.421 nM. Against the preceding compound, the Ki is about 9.1-fold lower. `Cc1cc(C(F)(F)F)cc(N2C(=O)C[C@@H]3CN(CCN4C[C@@H]5C[C@H]4CN5C)c4c(C)cccc4N(C)C(=O)[C@H]32)n1` [Example 62, (3aR,11aS)-6,10-Dimethyl-5-(2-((1S,4S)-5-methyl-2,5-diazabicyclo[2.2.1]heptan-2-yl)ethyl)-1-(6-methyl-4-(trifluoromethyl)pyridin-2-yl)-1,3a,4,5,10,11a-hexahydro-2H-benzo[b]pyrrolo[2,3-f][1,4]diazocine-2,11(3H)-dione dihydrochloride] yielded a Ki of 1.01 nM. Consider `Cc1cc(C(F)(F)F)cc(N2C(=O)C[C@@H]3CN(CCN4CCN(C5COC5)CC4)c4c(Cl)cccc4N(C)C(=O)[C@H]32)n1` [Example 28, (3aR,11aS)-6-Chloro-10-methyl-1-(6-methyl-4-(trifluoromethyl)pyridin-2-yl)-5-(2-(4-(oxetan-3-yl)piperazin-1-yl)ethyl)-1,3a,4,5,10,11a-hexahydro-2H-benzo[b]pyrrolo[2,3-f][1,4]diazocine-2,11(3H)-dione], for which affinity was put at a Ki of 1.97 nM. Regarding `CC(=O)N1CCN(CCN2C[C@H]3CC(=O)N(c4cc(C(F)(F)F)cc(C)n4)[C@@H]3C(=O)N(C)c3cccc(Cl)c32)CC1` [Example 33, (3aR,11aS)-5-(2-(4-Acetylpiperazin-1-yl)ethyl)-6-chloro-10-methyl-1-(6-methyl-4-(trifluoromethyl)pyridin-2-yl)-1,3a,4,5,10,11a-hexahydro-2H-benzo[b]pyrrolo[2,3-f][1,4]diazocine-2,11(3H)-dione], the Ki was found to be 1.73 nM. The Ki values of the last two compounds are within 1.5-fold of each other. The compound `Cc1cc(C(F)(F)F)cc(N2C(=O)C[C@@H]3CN(c4ccccn4)c4c(F)cccc4N(C)C(=O)[C@H]32)n1` [Example 134, (3aR,11aS)-6-Fluoro-10-methyl-1-(6-methyl-4-(trifluoromethyl)pyridin-2-yl)-5-(pyridin-2-yl)-1,3a,4,5,10,11a-hexahydro-2H-benzo[b]pyrrolo[2,3-f][1,4]diazocine-2,11(3H)-dione] came in with a Ki of 104 nM. Regarding `Cc1cc(C(F)(F)F)cc(N2C(=O)C[C@@H]3CN(CCN4CCN(CCF)CC4)c4c(Cl)cccc4N(C)C(=O)[C@H]32)n1` [Example 26, (3aR,11aS)-6-Chloro-5-(2-(4-(2-fluoroethyl)piperazin-1-yl)ethyl)-10-methyl-1-(6-methyl-4-(trifluoromethyl)pyridin-2-yl)-1,3a,4,5,10,11a-hexahydro-2H-benzo[b]pyrrolo[2,3-f][1,4]diazocine-2,11(3H)-dione], the Ki was determined as 2.72 nM.

`Cc1cc(C(F)(F)F)cc(N2C(=O)C[C@@H]3CN(Cc4ccc5c(c4)CN(C)C5)c4c(F)cccc4N(C)C(=O)[C@H]32)n1` [Example 123, (3aR,11aS)-6-Fluoro-10-methyl-1-(6-methyl-4-(trifluoromethyl)pyridin-2-yl)-5-((2-methylisoindolin-5-yl)methyl)-1,3a,4,5,10,11a-hexahydro-2H-benzo[b]pyrrolo[2,3-f][1,4]diazocine-2,11(3H)-dione hydrochloride]: the Ki is 2.2 nM. In the case of `Cc1cc(C(F)(F)F)cc(N2C(=O)C[C@@H]3CN(Cc4cn5c(n4)C(C)N(C)CC5)c4c(C)cccc4N(C)C(=O)[C@H]32)n1` (single isomer, unassigned) [Example 116a], the Ki turned out to be 0.63 nM. Turning to `Cc1cc(C(F)(F)F)cc(N2C(=O)C[C@@H]3CN(CC4COCCN4)c4c(C)cccc4N(C)C(=O)[C@H]32)n1` (single isomer, unassigned) [Example 112a], the Ki stood at 4.14 nM. Against the preceding compound, the Ki is about 6.6-fold higher. `COCCN1CCC(CN2C[C@H]3CC(=O)N(c4cc(C(F)(F)F)cc(C)n4)[C@@H]3C(=O)N(C)c3cccc(Cl)c32)CC1` [Example 87, (3aR,11aS)-6-Chloro-5-((1-(2-methoxyethyl)piperidin-4-yl)methyl)-10-methyl-1-(6-methyl-4-(trifluoromethyl)pyridin-2-yl)-1,3a,4,5,10,11a-hexahydro-2H-benzo[b]pyrrolo[2,3-f][1,4]diazocine-2,11(3H)-dione] showed a Ki of 1.48 nM. With `Cc1cc(C(F)(F)F)cc(N2C(=O)C[C@@H]3CN(CC4CCCNC4)c4c(F)cccc4N(C)C(=O)[C@H]32)n1` (stereo partly drawn) [Example 97, (3aR,11aS)-6-Fluoro-10-methyl-1-(6-methyl-4-(trifluoromethyl)pyridin-2-yl)-5-(piperidin-3-ylmethyl)-1,3a,4,5,10,11a-hexahydro-2H-benzo[b]pyrrolo[2,3-f][1,4]diazocine-2,11(3H)-dione hydrochloride], affinity was put at a Ki of 8.7 nM.

In turn, `Cc1cc(C(F)(F)F)cc(N2C(=O)C[C@@H]3CN(CCN4CCC(C#N)CC4)c4c(C)cccc4N(C)C(=O)[C@H]32)n1` [Example 69, 1-(2-((3aR,11aS)-6,10-Dimethyl-1-(6-methyl-4-(trifluoromethyl)pyridin-2-yl)-2,11-dioxo-1,2,3,3a,4,10,11,11a-octahydro-5H-benzo[b]pyrrolo[2,3-f][1,4]diazocin-5-yl)ethyl)piperidine-4-carbonitrile] registered a Ki of 1.12 nM. As for `Cc1cc(C(F)(F)F)cc(N2C(=O)C[C@@H]3CN(CCN4CCN(C)C[C@H]4CO)c4c(C)cccc4N(C)C(=O)[C@H]32)n1` [Example 64, (3aR,11aS)-5-(2-((S)-2-(Hydroxymethyl)-4-methylpiperazin-1-yl)ethyl)-6,10-dimethyl-1-(6-methyl-4-(trifluoromethyl)pyridin-2-yl)-1,3a,4,5,10,11a-hexahydro-2H-benzo[b]pyrrolo[2,3-f][1,4]diazocine-2,11(3H)-dione dihydrochloride], the figure is 0.816 nM. As to `Cc1cc(C(F)(F)F)cc(N2C(=O)C[C@@H]3CN(CCN4CC[C@H](C#N)C4)c4c(C)cccc4N(C)C(=O)[C@H]32)n1` [Example 70, (S)-1-(2-((3aR,11aS)-6,10-Dimethyl-1-(6-methyl-4-(trifluoromethyl)pyridin-2-yl)-2,11-dioxo-1,2,3,3a,4,10,11,11a-octahydro-5H-benzo[b]pyrrolo[2,3-f][1,4]diazocin-5-yl)ethyl)pyrrolidine-3-carbonitrile], affinity was put at a Ki of 0.692 nM. `Cc1cc(C(F)(F)F)cc(N2C(=O)C[C@@H]3CN(CCN4CCN(C(=O)[C@H](C)O)CC4)c4c(C)cccc4N(C)C(=O)[C@H]32)n1` [Example 52, (3aR,11aS)-5-(2-(4-((S)-2-Hydroxypropanoyl)piperazin-1-yl)ethyl)-6,10-dimethyl-1-(6-methyl-4-(trifluoromethyl)pyridin-2-yl)-1,3a,4,5,10,11a-hexahydro-2H-benzo[b]pyrrolo[2,3-f][1,4]diazocine-2,11(3H)-dione hydrochloride] showed a Ki of 0.957 nM. `COc1cccc(N2C[C@H]3CC(=O)N(c4cc(C(F)(F)F)cc(C)n4)[C@@H]3C(=O)N(C)c3cccc(F)c32)n1` [Example 141, (3aR,11aS)-6-Fluoro-5-(6-methoxypyridin-2-yl)-10-methyl-1-(6-methyl-4-(trifluoromethyl)pyridin-2-yl)-1,3a,4,5,10,11a-hexahydro-2H-benzo[b]pyrrolo[2,3-f][1,4]diazocine-2,11(3H)-dione] returned a Ki of 86.3 nM.

The values above are taken from patent US20260124214A1, “HETEROCYCLIC COMPOUNDS FOR USE IN THE TREATMENT OF CANCER” (ARTIOS PHARMA LIMITED, priority 2021, published 2026).
